Data taken from patent US10551384B2, “MTOR kinase mutations and methods of use thereof” (RUTGERS, THE STATE UNIVERSITY OF NEW JERSEY, priority 2016, dated 2020).

Columns and labels:
[1] = system: Wild type (WT) yeast cells; test: Disc halo assay of wild type yeast sensitivity to mTOR kinase inhibitors; format: cell-based, S. cerevisiae; conditions: WT yeast on YPD plates; 5 μl on filter disc, BEZ235 5 μM, other mTOR inhibitors 10 μM; 30° C., 3 day
Method: For the halo assay, log phase W303 wild type or tor2-dg cells were spread evenly on YPD agarose plates. […] Plates were incubated at 30° C. (wild type) or 37° C. (tor2-dg) for 3 day.

[2] = system: SW480 colorectal cancer cells carrying L2185A mutant mTOR alleles; test: SRB growth assay of SW480 cells carrying L2185A mutant mTOR; format: cell-based, human; conditions: various concentrations, 2 day
Method: (FIG. 5A) SW480 cells carrying homozygous WT mTOR or L2185A mutant alleles were treated with various concentrations of AZD8055, INK-128, OSI-027 and PP242 for 2 day. Growth of SW480 cells was measured by SRB assay. Data represent means±SD in three independent experiments. (FIG. 5B) SW480 cells carrying homozygous WT and L2185A mutant mTOR allele were treated with a single dose of AZD8055 (100 nM), INK-128 (100 nM), OSI-027 (6,000 nM), and PP242 (2,000 nM) for different times. Cell growth was measured by SRB assay. The drug carrier DMSO was used as a control. Data represent means±SD in three independent experiments. (FIG. 5C) SW480 cells carrying homozygous WT and L2185A mutant mTOR were treated with various concentrations of INK-128, OSI-027, AZD8055 and PP242 for 1 hr. The effect on the level of P-S6K, S6K, P-4E-BP1, 4EB-P1, P-AKT and AKT was analyzed by immunoblot. […] The growth of SW480 cells was measured by SRB assay. Data represent means±SD in three independent experiments.
Cancer cell lines were maintained in DMEM or RPMI 1640, supplemented with 10% fetal bovine serum (Invitrogen) and 1% penicillin/streptomycin (Invitrogen). CRISPR/cas9 technology was used to engineer mutant mTOR allele in SW480 colorectal and H460 lung cancer cells. Briefly, The target sequence for mTOR, […] (SEQ ID NO: 3 was designed through the online tool at crispr.mit.edu, and cloned into pSPCas9(BB)-2A-GFP vector (PX458 in Addgene). Genomic mTOR mutation was engineered using a protocol as described (Ran, et al. (2013). Nature protocols 8, 2281-2308) and was confirmed by targeted sequencing.
Antibodies against tubulin, S6K, phospho-S6K (Thr389), 4E-BP1, phospho-4E-BP1 (Thr37/46), Akt, phospho-Akt (Thr308), and phospho-Akt (Ser473) were purchased from Cell Signaling Technology. […] For drug sensitivity test, cancer cells were seeded in 96-well plates at a density of 2,000 cells per well. 24 hours later, different concentrations of mTOR inhibitors were added in quadruplicate. Cell growth was measured by the sulforhodamine B (SRB) assay as previously described (Vichai, V., and Kirtikara, K. (2006). Nature protocols 1, 1112-1116).

[3] = system: TOR2-mTOR L2185A mutant; test: Yeast spotting assay for drug resistance, TOR2-mTOR L2185A; format: cell-based, S. cerevisiae; conditions: 37° C., amphotericin B present (except OSI-027)
Excerpt: (§1) FIGS. 4A-C. […] (FIG. 4A) Scheme of a yeast-based screen for drug-resistant mutations in mTOR kinase domain. mTOR kinase domain is amplified by error-prone PCR to generate randomized mutations, which is then recombined in frame into the TOR2-mTOR plasmid by gap-repair in tort-dg cells, and is selected on SC-leucine minus plates. Replica plating is then made onto SC-leucine plates containing DMSO or mTOR kinase inhibitor for selection of drug resistant clones. (FIG. 4B) tor2-dg cells expressing WT or mutant TOR2-mTOR were serially diluted by 10-fold and assayed for sensitivity to different mTOR kinase inhibitors in the presence of amphotericin B. Vector and TOR2 were used as controls. Drug resistant assay was performed at 37° C. in the presence of amphotericin B (except OSI-027). (FIG. 4C) Systematic mutational analysis of L2185 on drug resistance. tort-dg cells expressing WT or mutant TOR2-mTOR carrying all possible mutations at L2185 were serially diluted by 10-fold and tested for sensitivity to different mTOR kinase inhibitors at 37° C.
(§2) To enhance yeast cell permeability, log phase W303 tort-dg cells were spread evenly on SD-Leu agarose plates. After drying, small sterile filter discs were placed on the surface and 5 μl of indicated mTOR inhibitors or DMSO were applied to each disc with or without adding 5 μl of amphotericin B (10 μM), miconazole (50 μM) or caspofungin (50 μM). Plates were incubated at 37° C. for 3 day. Drug resistance profiles of TOR2-mTOR mutant cells were determined by the spotting assay. For this assay, 10-fold serial dilutions of cells were spotted on SD-leu plates in the presence of indicated mTOR inhibitors with or without amphotericin B (200 nM) and incubated at 37° C. for 3 day.

[4] = system: H460 lung cancer cells carrying L2185A mutant mTOR alleles; test: SRB growth assay of H460 cells carrying L2185A mutant mTOR; format: cell-based, human; conditions: various concentrations, 2 days
Method: (FIG. 10A) Flag-mTOR(L2185A), when transiently expressed in HEK293T cells, confers drug resistance to mTOR kinase inhibitors. HEK293T cells transiently expressing WT and L2185A mutant Flag-mTOR were treated with various concentrations of INK-128, OSI-027 for 1 hr. The effect on the level of P-S6K, S6K, P-4E-BP1, 4EB-P1, P-AKT and AKT was analyzed by immunoblot. (FIG. 10B) Sequencing verification of genome-engineered SW480 and H460 cells carrying homozygous and heterozygous L2185A mutations in mTOR locus. (FIG. 10C) Independent clones of engineered SW480 cells confer similar drug resistance. Cells were treated with various concentrations of AZD8055 and INK-128 for 2 days. Cell growth was measured by SRB assay. Clones #1, 3 carry heterozygous L2185A mutation. Clones #2, 4 carry homozygous L2185A mutation. […] Cell growth was measured by SRB assay. […] Cell growth was measured by SRB assay. […] The effect on level of P-S6K, P-4E-BP1 and P-AKT was analyzed by immunoblot. […] The growth of H460 cells was measured by SRB assay. […]
Antibodies against tubulin, S6K, phospho-S6K (Thr389), 4E-BP1, phospho-4E-BP1 (Thr37/46), Akt, phospho-Akt (Thr308), and phospho-Akt (Ser473) were purchased from Cell Signaling Technology. […] Cell growth was measured by the sulforhodamine B (SRB) assay as previously described (Vichai, V., and Kirtikara, K. (2006). Nature protocols 1, 1112-1116).

[5] = system: TOR2-mTOR L2185C mutant; test: Yeast spotting assay for drug resistance, TOR2-mTOR L2185C; format: cell-based, S. cerevisiae; conditions: 37° C., amphotericin B present (except OSI-027)
Excerpt: as §1, §2

[6] = target: T1, tor2-dg cells expressing TOR2-mTOR fusion (UniProt P32600+P42345); format: cell-based, S. cerevisiae; conditions: 10-fold serial dilutions on plates containing drug
T1 construct: fused in frame with mTOR kinase domain (2140-2549 aa); yeast TOR2 N-terminus (1-2080 aa); expressed in transfected cells; host or cells: S. cerevisiae W303 tor2-dg, centromeric plasmid derived from pML40-TOR2
Excerpt: The TOR2-mTOR hybrid plasmid was constructed by replacing the C-terminal region of TOR2 of pML40-TOR2 (Alarcon, et al. (1996). Genes & development 10, 279-288) (encoding for 2080-2474 aa) in frame with a DNA fragment corresponding to C-terminal domain of mTOR (encoding for 2140-2549 aa). To construct mutant TOR2-mTOR plasmids, mTOR C-terminal region was amplified by PCR and co-transformed into yeast with XmaI-digested pML40-TOR2 plasmid that excised the TOR2 C-terminal region. The resultant TOR2-mTOR fusion plasmids are constructed in reading frame by gap-repair in yeast.

[7] = target: T2, tor2-dg cells expressing TOR2 (Saccharomyces cerevisiae, UniProt P32600); test: Yeast serial-dilution drug sensitivity assay, tor2-dg cells expressing TOR2; format: cell-based, S. cerevisiae; conditions: 10-fold serial dilutions on plates containing drug
T2 construct: expressed in transfected cells; host or cells: S. cerevisiae W303 tor2-dg, plasmid pML40-TOR2
T2 sequence (P32600 whole entry): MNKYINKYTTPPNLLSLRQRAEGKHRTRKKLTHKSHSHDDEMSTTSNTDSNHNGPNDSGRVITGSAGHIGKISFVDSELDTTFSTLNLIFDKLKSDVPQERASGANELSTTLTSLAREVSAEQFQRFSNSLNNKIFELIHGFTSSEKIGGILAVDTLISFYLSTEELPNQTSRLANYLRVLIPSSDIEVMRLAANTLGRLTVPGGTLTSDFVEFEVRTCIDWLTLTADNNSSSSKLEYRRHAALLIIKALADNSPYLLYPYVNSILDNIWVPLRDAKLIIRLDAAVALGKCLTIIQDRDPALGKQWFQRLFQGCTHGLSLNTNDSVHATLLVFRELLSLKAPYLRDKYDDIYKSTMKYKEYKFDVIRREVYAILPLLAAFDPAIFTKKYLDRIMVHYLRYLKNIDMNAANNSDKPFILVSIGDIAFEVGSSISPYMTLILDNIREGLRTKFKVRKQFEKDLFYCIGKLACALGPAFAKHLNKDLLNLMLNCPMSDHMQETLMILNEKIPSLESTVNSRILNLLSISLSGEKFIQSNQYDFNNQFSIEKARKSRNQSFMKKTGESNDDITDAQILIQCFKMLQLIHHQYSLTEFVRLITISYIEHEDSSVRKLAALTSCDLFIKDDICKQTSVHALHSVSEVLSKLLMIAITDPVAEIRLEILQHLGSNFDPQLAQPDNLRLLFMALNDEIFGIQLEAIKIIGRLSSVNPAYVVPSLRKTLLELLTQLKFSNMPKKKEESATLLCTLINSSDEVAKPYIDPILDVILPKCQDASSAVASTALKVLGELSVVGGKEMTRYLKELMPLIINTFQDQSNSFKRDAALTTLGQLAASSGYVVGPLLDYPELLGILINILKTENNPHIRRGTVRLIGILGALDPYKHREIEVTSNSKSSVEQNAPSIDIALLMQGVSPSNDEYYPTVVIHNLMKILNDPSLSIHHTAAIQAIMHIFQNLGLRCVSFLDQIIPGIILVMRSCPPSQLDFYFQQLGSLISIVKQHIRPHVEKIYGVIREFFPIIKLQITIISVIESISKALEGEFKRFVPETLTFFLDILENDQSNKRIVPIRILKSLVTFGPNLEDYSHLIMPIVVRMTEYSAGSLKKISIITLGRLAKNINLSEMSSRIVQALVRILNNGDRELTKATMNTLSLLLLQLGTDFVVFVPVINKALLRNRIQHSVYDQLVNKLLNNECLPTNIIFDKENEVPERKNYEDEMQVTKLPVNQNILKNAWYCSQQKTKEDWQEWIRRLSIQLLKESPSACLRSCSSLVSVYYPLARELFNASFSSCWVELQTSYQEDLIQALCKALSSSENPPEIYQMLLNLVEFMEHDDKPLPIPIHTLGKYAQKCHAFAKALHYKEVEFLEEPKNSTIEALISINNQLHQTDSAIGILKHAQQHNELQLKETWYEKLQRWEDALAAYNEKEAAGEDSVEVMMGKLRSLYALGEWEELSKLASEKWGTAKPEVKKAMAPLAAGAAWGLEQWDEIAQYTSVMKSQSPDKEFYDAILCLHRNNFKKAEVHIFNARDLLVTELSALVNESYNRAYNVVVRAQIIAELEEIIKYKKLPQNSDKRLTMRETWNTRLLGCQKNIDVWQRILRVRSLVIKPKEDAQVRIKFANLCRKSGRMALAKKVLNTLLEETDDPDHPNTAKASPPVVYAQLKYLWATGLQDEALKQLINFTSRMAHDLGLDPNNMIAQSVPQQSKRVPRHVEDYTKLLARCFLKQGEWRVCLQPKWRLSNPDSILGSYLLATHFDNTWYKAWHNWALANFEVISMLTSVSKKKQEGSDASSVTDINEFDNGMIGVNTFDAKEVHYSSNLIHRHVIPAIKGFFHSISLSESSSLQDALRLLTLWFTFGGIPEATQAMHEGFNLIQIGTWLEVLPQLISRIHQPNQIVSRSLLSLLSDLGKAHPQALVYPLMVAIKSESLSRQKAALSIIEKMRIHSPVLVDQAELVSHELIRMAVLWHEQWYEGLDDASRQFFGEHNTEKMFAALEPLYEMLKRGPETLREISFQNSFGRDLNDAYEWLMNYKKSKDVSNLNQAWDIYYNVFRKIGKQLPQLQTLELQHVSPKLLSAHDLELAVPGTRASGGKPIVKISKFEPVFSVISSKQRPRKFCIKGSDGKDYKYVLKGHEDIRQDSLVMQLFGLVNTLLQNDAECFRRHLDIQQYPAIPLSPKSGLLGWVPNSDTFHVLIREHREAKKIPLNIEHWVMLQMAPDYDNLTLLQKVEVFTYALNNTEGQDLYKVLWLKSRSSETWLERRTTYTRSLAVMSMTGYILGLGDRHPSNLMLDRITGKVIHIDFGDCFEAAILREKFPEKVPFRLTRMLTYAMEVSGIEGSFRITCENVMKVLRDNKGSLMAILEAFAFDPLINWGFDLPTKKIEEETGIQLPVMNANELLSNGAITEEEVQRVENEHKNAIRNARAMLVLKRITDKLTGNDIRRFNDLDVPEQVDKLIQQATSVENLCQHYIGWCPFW
Excerpt: FIGS. 1A-E. Developing a yeast system to assay for mTOR kinase inhibition. (FIG. 1A) Wild type (WT) yeast cells were spread onto YPD plates and tested for sensitivity to structurally diverse mTOR kinase inhibitors by disc halo assay. Rapamycin was used as a positive control. (FIG. 1B) The N-terminus of TOR2 (1-2080 aa) was fused in frame with mTOR kinase domain (2140-2549 aa). The TOR2-mTOR fusion is expressed under the control of TOR2 promoter in a centromeric plasmid. (FIG. 1C) Yeast strain expressing WT TOR2 or TOR2-mTOR fusion was analyzed for expression by immunoblot with an antibody specific for mTOR kinase domain. PGK1 was used as a loading control and extracts from MCF7 breast cells were used as a positive control for mTOR. (FIG. 1D) TOR2-mTOR fusion was expressed in tort-dg and tested for its ability to complement TOR2 function by growth at permissive and restrictive temperatures.
as §2, with “For this assay, 10-fold serial dilutions of cells were spotted on SD-leu plates in the presence of indicated mTOR inhibitors with or without amphotericin B (200 nM) and incubated at 37° C. for 3 day.” left out

SMILES | inhibition of yeast growth (disc halo assay) [1] | drug resistance/sensitivity of cell growth, SW480 L2185A vs WT [2] | drug resistance/sensitivity of TOR2-mTOR L2185A mutant yeast [3] | drug resistance/sensitivity of cell growth, H460 L2185A vs WT [4] | drug resistance/sensitivity of TOR2-mTOR L2185C mutant yeast [5] | drug sensitivity of tor2-dg cells expressing TOR2-mTOR [6] | drug sensitivity (growth inhibition) of tor2-dg cells expressing TOR2 [7]
Nc1ccc(-c2ccc3ncc4ccc(=O)n(-c5cccc(C(F)(F)F)c5)c4c3c2)cn1 [Torin2] | inhibit yeast growth | remains sensitive | remain sensitive | remains sensitive | remain sensitive |  | 
Cn1c(=O)n(-c2ccc(C(C)(C)C#N)cc2)c2c3cc(-c4cnc5ccccc5c4)ccc3ncc21 [BEZ235] |  | remains sensitive |  | remains sensitive |  | highly sensitive | poorly inhibited
